These results are taken from patent US12448375B2, “Kinase inhibitors for the treatment of neurodegenerative diseases” (Ohio State Innovation Foundation, priority 2019, dated 2025).

Assay type in all cases: biochemical
What all share (details): HotSpot radiometric assay, 33P-ATP

The target in one assay is T1, JNK3 (Homo sapiens, UniProt P53779).
T1 construct: purchased Reaction Biology Corp
As to the kind of experiment: HotSpot Kinase Assay (Reaction Biology Corp.), anti-JNK3 activity. The procedure: (§1) The anti-JNK3 activity of compounds prepared as in the previous examples was evaluated using a Reaction Biology Corp. HotSpot Kinase Assay. Base reaction buffer was 20 mM HEPES (4-(2-hydroxyethyl)-1-piperazineethanesulfonic acid) at pH 7.5 with 10 mM MgCl2, 1 mM EGTA (ethylene glycol-bis(β-aminoethyl ether)-N,N,N′,N′-tetracetic acid), 0.02% Brij™ 35, 0.02 mg/mL BSA (bovine serum albumin), 0.1 mM Na3VO4, 2 mM DTT (dithiothreitol), and 1% DMSO. Required cofactors were added individually to each kinase reaction.
(§2) Activity against related enzymes JNK1 and P38a was further assessed using the same assay.

The target of a further assay is T2, p38a (Homo sapiens, UniProt Q16539).
T2 construct: purchased Reaction Biology Corp
T2 sequence (Q16539 whole entry): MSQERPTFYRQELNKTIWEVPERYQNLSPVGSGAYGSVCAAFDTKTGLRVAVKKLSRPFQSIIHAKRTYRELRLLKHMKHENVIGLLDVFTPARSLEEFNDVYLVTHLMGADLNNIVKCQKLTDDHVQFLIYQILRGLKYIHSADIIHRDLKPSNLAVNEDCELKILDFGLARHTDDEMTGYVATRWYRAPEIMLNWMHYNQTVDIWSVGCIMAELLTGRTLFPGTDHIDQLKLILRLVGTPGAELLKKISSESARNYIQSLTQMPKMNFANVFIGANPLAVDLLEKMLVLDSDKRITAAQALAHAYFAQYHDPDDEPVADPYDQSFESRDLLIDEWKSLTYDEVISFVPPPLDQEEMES
Description: HotSpot Kinase Assay, P38a. As for the experimental part: as §1, §2

A further assay deals with T3, JNK1 (Homo sapiens, UniProt P45983).
T3 construct: purchased Reaction Biology Corp
T3 sequence (P45983 whole entry): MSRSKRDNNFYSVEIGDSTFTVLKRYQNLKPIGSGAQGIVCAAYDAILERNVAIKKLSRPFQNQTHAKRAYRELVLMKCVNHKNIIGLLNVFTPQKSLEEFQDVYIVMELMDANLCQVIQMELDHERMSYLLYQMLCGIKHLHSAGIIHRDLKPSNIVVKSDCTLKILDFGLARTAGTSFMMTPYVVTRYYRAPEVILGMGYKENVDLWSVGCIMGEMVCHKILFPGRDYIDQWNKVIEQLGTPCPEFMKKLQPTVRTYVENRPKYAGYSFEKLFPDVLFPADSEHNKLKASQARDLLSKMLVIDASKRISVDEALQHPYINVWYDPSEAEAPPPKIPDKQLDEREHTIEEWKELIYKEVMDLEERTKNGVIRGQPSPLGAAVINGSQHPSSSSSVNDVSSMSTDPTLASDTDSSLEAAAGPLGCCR
Description: HotSpot Kinase Assay, JNK1. As for the experimental part:
as §1, §2

Bounds are passed on as bounds.

T1 sequence (P53779 whole entry): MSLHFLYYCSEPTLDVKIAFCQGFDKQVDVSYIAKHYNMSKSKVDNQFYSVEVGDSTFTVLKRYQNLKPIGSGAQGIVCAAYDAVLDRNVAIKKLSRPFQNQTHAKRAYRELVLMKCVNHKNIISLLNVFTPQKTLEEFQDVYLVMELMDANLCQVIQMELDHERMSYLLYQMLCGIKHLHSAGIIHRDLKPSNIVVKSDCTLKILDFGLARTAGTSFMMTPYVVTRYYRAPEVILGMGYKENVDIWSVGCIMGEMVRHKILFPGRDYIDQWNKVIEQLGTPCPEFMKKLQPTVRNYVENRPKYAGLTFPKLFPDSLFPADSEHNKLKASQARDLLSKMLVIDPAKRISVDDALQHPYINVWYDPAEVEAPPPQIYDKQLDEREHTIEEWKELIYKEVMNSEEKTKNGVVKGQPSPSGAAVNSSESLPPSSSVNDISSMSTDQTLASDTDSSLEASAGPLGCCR

As for `CC(C)NC(=O)c1cc(-n2ncc3cc(Oc4ccccc4Cl)ncc32)cs1` [Compound 7, 4-(5-(2-chlorophenoxy)-1H-pyrazolo[3,4-c]pyridine-1-yl)-N-isopropylthiophene-2-carboxamide], the IC50 was below 200 nM against JNK3, above 1000 nM on p38a and above 1000 nM against JNK1.

Consider `O=C(NC1CN(C2CC2)C1)c1cc(-n2ncc3cc(Oc4ccccc4Cl)ccc32)cs1` [Compound 10, 4-(5-(2-chlorophenoxy)-1H-indazol-1-yl)-N-(1-cyclopropylazetidin-3-yl)thiophene-2-carboxamide], for which the IC50 on JNK3 is below 200 nM; against p38a, 200 to 1000 nM; on JNK1, above 1000 nM.

With `CNC(=O)c1cc(-n2ncc3cc(Oc4ccccc4Cl)ncc32)cs1` [Compound 15, 4-(5-(2-chlorophenoxy)-1H-pyrazolo[3,4-c]pyridin-1-yl)-N-methylthiophene-2-carboxamide], the IC50 on JNK3 is below 200 nM.

On JNK3, `CCNC(=O)c1cc(-n2ncc3cc(Oc4ccccc4Cl)ncc32)cs1` [Compound 18, 4-(5-(2-chlorophenoxy)-1H-pyrazolo[3,4-c]pyridin-1-yl)-N-ethylthiophene-2-carboxamide] had a half-inhibitory concentration (IC50) below 200 nM.

In the case of `Cn1cnc(NC(=O)c2cc(-n3ncc4cc(Nc5ccccc5Cl)ncc43)cs2)c1` [Compound 19, 4-(5-((2-chlorophenyl)amino)-1H-pyrazolo[3,4-c]pyridin-1-yl)-N-(1-methyl-1H-imidazol-4-yl)thiophene-2-carboxamide], the half-inhibitory concentration (IC50) against JNK3 is below 200 nM.

As to `O=C(NC1COC1)c1cc(-n2ncc3cc(Nc4ccccc4Cl)ncc32)cs1` [Compound 20, 4-(5-((2-chlorophenyl)amino)-1H-pyrazolo[3,4-c]pyridin-1-yl)-N-(oxetan-3-yl)thiophene-2-carboxamide], at JNK3, the IC50 was below 200 nM.

`CN1CCN=C1NC(=O)c1cc(-n2ncc3cc(Nc4ccccc4Cl)ncc32)cs1` [Compound 21, 4-(5-((2-chlorophenyl)amino)-1H-pyrazolo[3,4-c]pyridin-1-yl)-N-(1-methyl-4,5-dihydro-1H-imidazol-2-yl)thiophene-2-carboxamide]: the concentration for half-maximal inhibition (IC50) at JNK3 is below 200 nM.

With `CC(=O)N1CC(NC(=O)c2cc(-n3ncc4cc(Nc5ccccc5Cl)ncc43)cs2)C1` [Compound 22, N-(1-acetylazetidin-3-yl)-4-(5-((2-chlorophenyl)amino)-1H-pyrazolo[3,4-c]pyridin-1-yl)thiophene-2-carboxamide], the IC50 against JNK3 was below 200 nM.

In the case of `O=C(NC1COC1)c1cc(-n2ncc3cc(Oc4ccccc4Cl)ncc32)cs1` [Compound 23, 4-(5-(2-chlorophenoxy)-1H-pyrazolo[3,4-c]pyridin-1-yl)-N-(oxetan-3-yl)thiophene-2-carboxamide], the IC50 against JNK3 was in the range of 200 to 1000 nM.

Regarding `CNC(=O)c1cc(-n2ncc3cc(Nc4cccc(F)c4Cl)ncc32)cs1` [Compound 24, 4-(5-((2-chloro-3-fluorophenyl)amino)-1H-pyrazolo[3,4-c]pyridin-1-yl)-N-methylthiophene-2-carboxamide], the IC50 on JNK3 was below 200 nM.

`CCNC(=O)c1cc(-n2ncc3cc(Nc4ccccc4Cl)ncc32)cs1` [Compound 26, 4-(5-((2-chlorophenyl)amino)-1H-pyrazolo[3,4-c]pyridin-1-yl)-N-ethylthiophene-2-carboxamide] showed an IC50 at JNK3 below 200 nM.

As to `CC(=O)N1CC(NC(=O)c2cc(-n3ncc4cc(Nc5ccccc5Cl)ccc43)cs2)C1` [Compound 29, N-(1-acetylazetidin-3-yl)-4-(5-((2-chlorophenyl)amino)-1H-indazol-1-yl)thiophene-2-carboxamide], the IC50 at JNK3 was below 200 nM.

For the molecule `COC(=O)N1CC(NC(=O)c2cc(-n3ncc4cc(Nc5ccccc5Cl)ccc43)cs2)C1` [Compound 33, Methyl 3-(4-(5-((2-chlorophenyl)amino)-1H-indazol-1-yl)thiophene-2-carboxamido)azetidine-1-carboxylate], on JNK3, the IC50 was below 200 nM.

`CNC(=O)c1cc(-n2ncc3nc(Nc4ccccc4Cl)ncc32)cs1` [Compound 41, 4-(5-((2-chlorophenyl)amino)-1H-pyrazolo[4,3-d]pyrimidin-1-yl)-N-methylthiophene-2-carboxamide] yielded a half-inhibitory concentration (IC50) at JNK3 of 200 to 1000 nM.

Molecule `O=C(NCCCF)c1cc(-n2ncc3nc(Nc4ccccc4Cl)ncc32)cs1` [Compound 42, 4-(5-((2-chlorophenyl)amino)-1H-pyrazolo[4,3-d]pyrimidin-1-yl)-N-(3-fluoropropyl)thiophene-2-carboxamide] had an IC50 against JNK3 below 200 nM.

Turning to `O=C(NC1=NCCO1)c1cc(-n2ncc3cc(Nc4ccccc4Cl)c(F)cc32)cs1` [Compound 43, 4-(5-((2-chlorophenyl)amino)-6-fluoro-1H-indazol-1-yl)-N-(4,5-dihydrooxazol-2-yl)thiophene-2-carboxamide], the 50% inhibitory concentration (IC50) against JNK3 was below 200 nM.

The molecule `CN1CCN=C1NC(=O)c1cc(-n2ncc3cc(Nc4ccccc4Cl)ccc32)cs1` [Compound 45, 4-(5-((2-chlorophenyl)amino)-1H-indazol-1-yl)-N-(1-methyl-4,5-dihydro-1H-imidazol-2-yl)thiophene-2-carboxamide] showed a concentration for half-maximal inhibition (IC50) against JNK3 below 200 nM.

Molecule `N#CCNC(=O)c1cc(-n2ncc3cc(Nc4ccccc4Cl)ccc32)cs1` [Compound 46, 4-(5-((2-chlorophenyl)amino)-1H-indazol-1-yl)-N-(cyanomethyl)thiophene-2-carboxamide] came in with an IC50 against JNK3 below 200 nM.

Turning to `O=C(N[C@H]1CCOC1)c1cc(-n2ncc3nc(Nc4ccccc4Cl)ccc32)cs1` [Compound 51, (S)-4-(5-((2-chlorophenyl)amino)-1H-pyrazolo[4,3-b]pyridin-1-yl)-N-(tetrahydrofuran-3-yl)thiophene-2-carboxamide], the half-maximal inhibitory concentration (IC50) on JNK3 was below 200 nM.

At JNK3, `Cn1cnc(NC(=O)c2cc(-n3ncc4nc(Nc5ccccc5Cl)ccc43)cs2)c1` [Compound 57, 4-(5-((2-chlorophenyl)amino)-1H-pyrazolo[4,3-b]pyridin-1-yl)-N-(1-methyl-1H-imidazol-4-yl)thiophene-2-carboxamide] came in with an IC50 below 200 nM.

As for `Cn1ccnc1NC(=O)c1cc(-n2ncc3nc(Nc4ccccc4Cl)ccc32)cs1` [Compound 59, 4-(5-((2-chlorophenyl)amino)-1H-pyrazolo[4,3-b]pyridin-1-yl)-N-(1-methyl-1H-imidazol-2-yl)thiophene-2-carboxamide], the IC50 against JNK3 was in the range of 200 to 1000 nM.

For the molecule `CN1C[C@@H](NC(=O)c2cc(-n3ncc4nc(Nc5ccccc5Cl)ccc43)cs2)CC1=O` [Compound 60, (S)-4-(5-((2-chlorophenyl)amino)-1H-pyrazolo[4,3-b]pyridin-1-yl)-N-(1-methyl-5-oxopyrrolidin-3-yl)thiophene-2-carboxamide], the half-inhibitory concentration (IC50) against JNK3 is below 200 nM.

`Cn1cnc(NC(=O)c2cc(-n3ncc4cc(Nc5ccccc5Cl)cnc43)cs2)c1` [Compound 66, 4-(5-((2-chlorophenyl)amino)-1H-pyrazolo[3,4-b]pyridin-1-yl)-N-(1-methyl-1H-imidazol-4-yl)thiophene-2-carboxamide] came in with an IC50 against JNK3 below 200 nM.

`Cn1ccnc1NC(=O)c1cc(-n2ncc3cc(Nc4ccccc4Cl)cnc32)cs1` [Compound 67, 4-(5-((2-chlorophenyl)amino)-1H-pyrazolo[3,4-b]pyridin-1-yl)-N-(1-methyl-1H-imidazol-2-yl)thiophene-2-carboxamide] returned an IC50 against JNK3 below 200 nM.

`CCNC(=O)c1cc(-n2ncc3cc(Oc4ccccc4Cl)cnc32)cs1` [Compound 73, 4-(5-(2-chlorophenoxy)-1H-pyrazolo[3,4-b]pyridin-1-yl)-N-ethylthiophene-2-carboxamide] came in with an IC50 on JNK3 below 200 nM.
